Usually IC50 stands for the concentration that gives 50% inhibition.

This passage reports IC50 results from patent US20260166039A1 (SCHRÖDINGER, INC., priority 2022, published 2026).

Test [1] concerns phosphorylation of Cdc2 Y15 (Wee1 substrate) in A427 cells. Briefly: Phosphorylated Cdc2 MSD Electrochemiluminescence Assay. Particulars: Homo sapiens, A-427, pCDC2 MSD. The format is cell-based. The method, then:
Phosphorylated Cdc2 MSD Electrochemiluminescence Assay
The effect of Wee1 inhibitors on cellular phosphorylation of the Wee1 substrate Cdc2 was determined using the following protocol:
A total of 40,000 A427 cells in 100 uL culture medium (1640 medium+10% Fetal bovine serum+1% Penicillin-Streptomycin) were plated in 96-well cell culture plates. 3-fold serial dilutions of test compounds were prepared in completed PBS at 25× final concentration. After 20 hours, the plates were removed and 4 μL of each were added to the cells and incubated with shaking for 30 minutes at 37° C., 5% CO2. Each concentration was tested in duplicate. After a total 6 hours incubation, plates were removed and centrifuged for 5 minutes and 100 uL of supernatant from each well was removed. Cells were washed with 200 μL PBS and lysed with 50 μL MSD lysis buffer (Meso Scale Diagnostics) supplied with 1× complete ULTRA cocktail inhibitor (Roche).
To detect phosphorylation of Cdc2 Y15, 30 μL of capture antibody solution (CST catalog #9116S 1:200) was added into each well of the MSD plate (MSD catalog #L15XB-6), sealed and incubated at 4° C. with shaking (450 rpm) overnight. The antibody solution was removed, wells blocked with BSA solution and plates washed three times with PBST, followed by addition of 30 μl of cell lysate per well. After 2 hours of incubation, plates were washed three times with PBST. 30 μL of 1× detection antibody solution (CST catalog #4539S 1:200) was then added to each well and incubated for 1 hour. Plates were washed three times with PBST and 30 μL of 1× secondary antibody solution (MSD, catalog #:R32AB-1, 1:5000) was added to each well and incubated for 1 hour. Plates were washed three times with PBST and 150 μL of 1× Read Buffer T (MSD, catalog #R92TC-1) was added to each well of the MSD plate. The electrochemiluminescence signal was measured on a MESO SECTOR S600 plate reader. The percentage of remaining phosphorylated Cdc2 signal was calculated following the equation below.
[formula] • HC (high control): Cells treated with DMSO • Cpds: Cells treated with test compounds • LC (low control): Cells treated with positive control Wee1 inhibitor

A further test addresses T1, Wee1 kinase domain (Homo sapiens, UniProt P30291).
T1 construct: Wee1 kinase domain was purchased from Carna (catalog #05-177); purchased Carna 05-177
Kind of test: Wee1 Kinase Biochemical Assay (ADP-Glo). The following applies: Wee1 kinase domain, 15 uM ATP, ADP-Glo. A digest of the protocol: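 ADP-Glo luminescence readout of ADP produced by 1 nM kinase domain phosphorylating Poly(Lys,Tyr 4:1) (2 ng/mL) at 15 uM ATP. Reaction ran 4 h, 25 °C, in Tris/MgCl2 buffer with BSA and DTT. Inhibition scaled between DMSO (high) and saturating control inhibitor (low).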
In general terms: In ADP-Glo the light output rises with the ADP produced.

T1 sequence (P30291 299-569 limits assumed): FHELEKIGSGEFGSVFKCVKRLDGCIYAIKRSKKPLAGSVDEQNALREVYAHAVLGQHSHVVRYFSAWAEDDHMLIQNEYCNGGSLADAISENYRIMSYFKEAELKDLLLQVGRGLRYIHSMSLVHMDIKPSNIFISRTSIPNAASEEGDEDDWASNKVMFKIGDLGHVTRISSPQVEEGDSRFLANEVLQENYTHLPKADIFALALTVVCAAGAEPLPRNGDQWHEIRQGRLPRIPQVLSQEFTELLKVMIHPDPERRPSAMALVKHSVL

For `CNCc1cccc(N2c3nc(Nc4ccc(N5CCCCC5)cc4)ncc3[C@@]3(C)COC(C)(C)C[C@@H]23)n1` (single isomer, unassigned) [Example 2], the IC50 in test [1] was 100 to 1000 nM; against Wee1 kinase domain it was less than 10 nM.
Consider `CN1CCN(c2ccc(Nc3ncc4c(n3)N(c3cccc(C(C)(C)O)n3)[C@@H]3CC(C)(C)OC[C@]43C)cc2)CC1` (single isomer, unassigned) [Example 4], for which the IC50 in test [1] was 100 to 1000 nM; against Wee1 kinase domain, less than 10 nM.
Regarding `CNCc1cccc(N2c3nc(Nc4ccc(N5CCOCC5)cc4)ncc3[C@@]3(C)COC(C)(C)C[C@@H]23)n1` (single isomer, unassigned) [Example 5], the IC50 in test [1] was 100 to 1000 nM; against Wee1 kinase domain, less than 10 nM.
Turning to `Cc1cc(Nc2ncc3c(n2)N(c2cccc(C(C)(C)O)n2)[C@@H]2CC(C)(C)OC[C@]32C)ccc1C1CCN(C)CC1` (single isomer, unassigned) [Example 8], the IC50 in test [1] was 100 to 1000 nM; on Wee1 kinase domain, less than 10 nM.
As to `Cc1cc(Nc2ncc3c(n2)N(c2cccc(C(C)(C)O)n2)[C@@H]2CC(C)(C)OC[C@]32C)ccc1N1CCN(C)CC1` (single isomer, unassigned) [Example 9], the IC50 in test [1] is 100 to 1000 nM; on Wee1 kinase domain it was less than 10 nM.
For `CN1CCC(n2cc(Nc3ncc4c(n3)N(c3cccc(C(C)(C)O)n3)[C@@H]3CC(C)(C)OC[C@]43C)cn2)CC1` (single isomer, unassigned) [Example 11] the same measures were 100 to 1000 nM and less than 10 nM.
Take `CNCc1cccc(N2c3nc(Nc4ccc(N5CCOCC5)c(Cl)c4)ncc3[C@@]3(C)COC(C)(C)C[C@@H]23)n1` (single isomer, unassigned) [Example 14]: the 50% inhibitory concentration (IC50) is 100 to 1000 nM in test [1] and less than 10 nM against Wee1 kinase domain.
In the case of `CNCc1cccc(N2c3nc(Nc4ccc(N5CCC(F)(F)CC5)cc4)ncc3[C@@]3(C)COC(C)(C)C[C@@H]23)n1` (single isomer, unassigned) [Example 16], the concentration for half-maximal inhibition (IC50) in test [1] was 100 to 1000 nM; against Wee1 kinase domain it was less than 10 nM.
Regarding `CNCc1cccc(N2c3nc(Nc4ccc(N5CCCOCC5)cc4)ncc3[C@@]3(C)COC(C)(C)C[C@@H]23)n1` (single isomer, unassigned) [Example 18], the IC50 in test [1] was 100 to 1000 nM; against Wee1 kinase domain, less than 10 nM.
`CNCc1cccc(N2c3nc(Nc4ccc(N5C[C@@H](C)O[C@@H](C)C5)cc4)ncc3[C@]3(C)COC(C)(C)C[C@H]23)n1` (single isomer, unassigned) [Example 20]: the IC50 is 100 to 1000 nM in test [1] and less than 10 nM on Wee1 kinase domain.
In the case of `CNCc1cccc(N2c3nc(Nc4ccc(N5CCC(F)(F)C5)cc4)ncc3[C@@]3(C)COC(C)(C)C[C@@H]23)n1` (single isomer, unassigned) [Example 22], the IC50 in test [1] is 100 to 1000 nM; against Wee1 kinase domain, less than 10 nM.
For `CNCc1cccc(N2c3nc(Nc4ccc(C(=O)N5CCOCC5)cc4)ncc3[C@@]3(C)COC(C)(C)C[C@@H]23)n1` (single isomer, unassigned) [Example 24] the same measures were 100 to 1000 nM and less than 10 nM.
Regarding `CNCc1cccc(N2c3nc(Nc4ccc(N5CCOCC5)c(C)c4)ncc3[C@@]3(C)COC(C)(C)C[C@@H]23)n1` (single isomer, unassigned) [Example 26], the IC50 in test [1] was 100 to 1000 nM; against Wee1 kinase domain it was less than 10 nM.
As for `CNCc1cccc(N2c3nc(Nc4ccc(N5C(=O)CC[C@H]5C)cc4)ncc3[C@@]3(C)COC(C)(C)C[C@@H]23)n1` (single isomer, unassigned) [Example 30], the results for the IC50 (in test [1]; against Wee1 kinase domain) were 100 to 1000 nM and less than 10 nM, respectively.
For `CNCc1cccc(N2c3nc(Nc4ccc5c(c4)C(=O)N(C)C5)ncc3[C@@]3(C)COC(C)(C)C[C@@H]23)n1` (single isomer, unassigned) [Example 32], the IC50 in test [1] is 100 to 1000 nM; against Wee1 kinase domain it was less than 10 nM.
Consider `CNCc1cccc(N2c3nc(Nc4ccc(S(C)(=O)=O)cc4)ncc3[C@@]3(C)COC(C)(C)C[C@@H]23)n1` (single isomer, unassigned) [Example 34], for which the IC50 in test [1] was 100 to 1000 nM; against Wee1 kinase domain, less than 10 nM.
With `CNCc1cccc(N2c3nc(Nc4ccc(C5CCOCC5)cc4)ncc3[C@@]3(C)COC(C)(C)C[C@@H]23)n1` (single isomer, unassigned) [Example 35], the results for the IC50 (in test [1]; against Wee1 kinase domain) were 100 to 1000 nM and less than 10 nM, respectively.
Consider `CNCc1cccc(N2c3nc(Nc4ccc([C@@H]5CCOC5)cc4)ncc3[C@@]3(C)COC(C)(C)C[C@@H]23)n1` (single isomer, unassigned) [Example 38], for which the IC50 in test [1] was less than 100 nM; against Wee1 kinase domain, less than 10 nM.
For `CNCc1cccc(N2c3nc(Nc4ccc([C@H]5CCOC5)cc4)ncc3[C@@]3(C)COC(C)(C)C[C@@H]23)n1` (single isomer, unassigned) [Example 40] the same measures were less than 100 nM and less than 10 nM.
Turning to `CNCc1cccc(N2c3nc(Nc4ccc(N5C[C@@H]6C[C@H]5CO6)cc4)ncc3[C@@]3(C)COC(C)(C)C[C@@H]23)n1` (single isomer, unassigned) [Example 41], the IC50 in test [1] is less than 100 nM; at Wee1 kinase domain, less than 10 nM.
Turning to `CNCc1cccc(N2c3nc(Nc4ccc(N5C[C@H]6C[C@@H]5CO6)cc4)ncc3[C@@]3(C)COC(C)(C)C[C@@H]23)n1` (single isomer, unassigned) [Example 44], the IC50 in test [1] is less than 100 nM; against Wee1 kinase domain, less than 10 nM.
Consider `CNCc1cccc(N2c3nc(Nc4ccccc4)ncc3[C@@]3(C)COC(C)(C)C[C@@H]23)n1` (single isomer, unassigned) [Example 45], for which the concentration for half-maximal inhibition (IC50) was 100 to 1000 nM in test [1] and less than 10 nM against Wee1 kinase domain.
In the case of `CNCc1cccc(N2c3nc(Nc4cnn(C(C)(C)C)c4)ncc3[C@@]3(C)COC(C)(C)C[C@@H]23)n1` (single isomer, unassigned) [Example 48], the IC50 was less than 100 nM in test [1] and less than 10 nM on Wee1 kinase domain.
For the compound `CNCc1cccc(N2c3nc(Nc4ccc(N5CCS(=N)(=O)CC5)cc4)ncc3[C@@]3(C)COC(C)(C)C[C@@H]23)n1` (single isomer, unassigned) [Example 49], the half-inhibitory concentration (IC50) in test [1] is 100 to 1000 nM; on Wee1 kinase domain, less than 10 nM.
For `CNCc1cccc(N2c3nc(Nc4ccc([C@@H]5CCC(=O)N5C)cc4)ncc3[C@@]3(C)COC(C)(C)C[C@@H]23)n1` (single isomer, unassigned) [Example 52], in that order: less than 100 nM and less than 10 nM.
Consider `CNCc1cccc(N2c3nc(Nc4ccc([C@H]5CCC(=O)N5C)cc4)ncc3[C@@]3(C)COC(C)(C)C[C@@H]23)n1` (single isomer, unassigned) [Example 54], for which the IC50 is less than 100 nM in test [1] and less than 10 nM on Wee1 kinase domain.
For `CNCc1cccc(N2c3nc(Nc4ccc(C5CCOCC5)nc4)ncc3[C@@]3(C)COC(C)(C)C[C@@H]23)n1` (single isomer, unassigned) [Example 56], the IC50 in test [1] is 100 to 1000 nM; against Wee1 kinase domain it was less than 10 nM.
Regarding `CNCc1cccc(N2c3nc(Nc4ccc([C@H]5CNC(=O)C5)cc4)ncc3[C@@]3(C)COC(C)(C)C[C@@H]23)n1` (single isomer, unassigned) [Example 61], the IC50 in test [1] is less than 100 nM; against Wee1 kinase domain, less than 10 nM.
For the compound `CNCc1cccc(N2c3nc(Nc4ccc([C@@H]5CNC(=O)C5)cc4)ncc3[C@@]3(C)COC(C)(C)C[C@@H]23)n1` (single isomer, unassigned) [Example 63], the IC50 is 100 to 1000 nM in test [1] and less than 10 nM on Wee1 kinase domain.
For `CN=S1(=O)CCN(c2ccc(Nc3ncc4c(n3)N(c3cccc(CNC)n3)[C@@H]3CC(C)(C)OC[C@]43C)cc2)CC1` (single isomer, unassigned) [Example 65], the half-inhibitory concentration (IC50) in test [1] was 100 to 1000 nM; against Wee1 kinase domain, less than 10 nM.
Consider `CNCc1cccc(N2c3nc(Nc4ccc([C@H]5CC(=O)N(C)C5)cc4)ncc3[C@@]3(C)COC(C)(C)C[C@@H]23)n1` (single isomer, unassigned) [Example 68], for which the IC50 in test [1] was 100 to 1000 nM; against Wee1 kinase domain it was less than 10 nM.
With `CC1(C)C[C@H]2N(c3cccc([C@@H]4CCCN4)n3)c3nc(Nc4ccn(C5CCOCC5)c(=O)c4)ncc3[C@@]2(C)CO1` (single isomer, unassigned) [Example 392, 1-(tetrahydro-2H-pyran-4-yl)-4-(((4bR,8aR)-4b,7,7-trimethyl-9-(6-((S)-pyrrolidin-2-yl)pyridin-2-yl)-4b,5,7,8,8a,9-hexahydropyrano[3′,4′:4,5]pyrrolo[2,3-d]pyrimidin-2-yl)amino)pyridin-2(1H)-one], the concentration for half-maximal inhibition (IC50) in test [1] lay within 1000 to 10000 nM.
